Results taken from paper PMC11906403, “Anti-lymphoma peptide is inspired by mapping a sequence of four amino acids of KRAI motif as nuclear localization signal of Crlz-1” (Molecular Therapy Oncology, 2025).
Read-outs that look alike come from different tables or passages of the source. Where no end group is shown, it is not given here.

Assays:
Ramos cells [1] = format: cell-based, human
Excerpt: (§1) Ramos (CRL-1596; American Type Culture Collection [ATCC]) is a human cell line of GC centroblast-derived BCL that was isolated from a Burkitt’s lymphoma patient, and Daudi (CCL-213; ATCC) is another human BCL cell line of Burkitt’s type. The control human cell lines of K562 (CCL-243; ATCC) and THP-1 (TIB-202; ATCC) wre originated from myelogenous and monocytic leukemia patients, respectively. NIH3T3 (CRL-1658; ATCC) is a mouse cell line of fibroblasts. […] Cells were counted on a hemocytometer (Neubauer; Marienfeld) after staining their aliquot with an equal volume of 0.4% trypan blue solution. All of the cell culture media and their supplements were purchased from Gibco (Thermo Fisher Scientific).
Stock solutions of various peptides, whose syntheses were custom ordered from GenScript via Koma Biotech in Korea, were first prepared by dissolving the lyophilized powder in PBS. Then, their aliquots were serially diluted with PBS to reach the final concentrations required for the experiments. […] To chase the effect of peptide transfection on the cellular proliferation, cells were counted daily on a hemocytometer by staining their aliquot with an equal volume of 0.4% trypan blue solution and finally harvested to analyze the effects of transfected peptide on various molecular events such as protein localization, transcription factor binding, gene expression, and rRNA production. […]

[2] = tested on: Ramos, Daudi, K562 and THP-1 cells
Description: (§2) For a 2-mL culture of cells in each well of a 6-well plate, 7 μL peptide solution in a concentration of 10 μg/μL in PBS was added directly to the culture media, which were RPMI-1640 supplemented with fetal bovine serum (10%), L-glutamine (1×), nonessential amino acids (1×), penicillin/streptomycin (1×), and 2-mercaptoethanol (50 μM), but not sodium pyruvate. The intrinsic cell membrane permeability of peptide with its N-terminally conjugated FAM fluorophore was checked by observing the peptide-treated cells in a confocal fluorescence microscope (Zeiss) after mounting the washed cells on a microscope slide with a cover glass. It was important that the treated cells be washed well, for example, five times with warm PBS-T (0.01% Tween 20) to remove any nonspecifically adsorbed FAM fluorophore-conjugated peptides. Various custom-ordered peptides with or without the conjugated FAM fluorophore to be used for this direct addition to the cells in culture media as well as for their intravenous injection to the xenografted nude mice as described below were prepared as mentioned above.

Ramos cells [3] = format: cell-based, human; conditions: control peptides added directly to culture media without sodium pyruvate (Figure 6A)
Excerpt: as §1

Daudi cells = format: cell-based, human; conditions: control peptides added directly to culture media without sodium pyruvate (Figure 6B)
Excerpt: as §1

[4] = tested on: Ramos, Daudi, K562 and THP-1 cells; assay: Intrinsic cell membrane permeability of FAM-conjugated peptides added directly to culture media (confocal fluorescence microscopy); conditions: for intrinsic cell membrane permeability: FAM fluorophore-labeled peptides added directly to Ramos, Daudi, K562 and THP-1 cells in culture media, cells washed with PBS-T, confocal fluorescence (Figure 6); for cell membrane permeability: N-terminally FAM-conjugated peptide added directly to culture media, confocal fluorescence (Figure 5A)
Description: as §2

Compound | intrinsic cell membrane permeability [2] | proliferation of Crlz-1+ Ramos cells inhibited (Ramos cells [3]) | proliferation of Crlz-1+ Daudi cells inhibited (Daudi cells) | intrinsic cell membrane permeability [4] | cell membrane permeability ([4]; absence of sodium pyruvate) | further results
O=C([O-])CCN1C(=O)/C(=C/c2ccc(-c3ccc([N+](=O)[O-])cc3)o2)SC1=S.[K+] [KYA1797K] | – | – | – | – | – | saturation concentration for cell growth inhibition (Ramos cells [1]; titration in Xfect transfection/treatment of Ramos cells, in the absence of any cell death (Figures 2D, 2E)): 5.5 µg/mL
ADEAIT [negatively charged control peptide] | no such intrinsic cell membrane permeability | not | not | – | – | –
AKRAIT [AKRAIT] | – | – | – | intrinsic cell membrane permeabilities | intrinsically membrane permeable | death of transfected cells (Ramos cells [1]): not observed
AVGAGT [AVGAGT] | – | – | – | intrinsic cell membrane permeabilities | permeable through the membrane regardless of sodium pyruvate | cell membrane permeability ([4]; presence of sodium pyruvate): permeable through the membrane regardless of sodium pyruvate
TIARKA | intrinsic cell membrane permeabilities | not | not | – | – | –
